# Source: US20150056191A1, “IGF1 BIOMARKER FOR IGF1R INHIBITOR THERAPY” (MERCK SHARP & DOHME CORP., priority 2012, published 2015)
# “Also recorded” adds a separate entry of the source. Read-outs that look alike come from different tables or passages of the source.
# Columns and labels:
# IGF1 receptor = IGF1 receptor (Homo sapiens, UniProt P08069); test: Blocking of IGF1 binding to the IGF1 receptor
# H2122 NSCLC cells = test: H2122 cell growth with and without IGF1 (Cell Titer-Glo); assay type: cell-based; conditions: 10 ug/ml MK-0646, 96 hours, 2% fetal calf serum
# Description: H2122 cells were obtained from the American Type Culture Collection (ATCC) and propagated according to the conditions provided by ATCC in media at 37° C. H2122 cells in low serum (2% fetal calf serum (Hyclone), at 2000 cells/well, were plated in a 96 well plate and incubated with 10 ug/ml MK-0646 or vehicle control for 96 hours in the presence or absence of IGF1 (10 ng; SIGMA). Cells were harvested at day 0 and day 4 and cell growth was measured by Cell Titer-Glo® ([…]) according to manufacturer instructions. The relative cell proliferation was calculated by normalizing to day 0 levels.
# [1] = tested on: primary colorectal xenograft tumor models; test: Primary colorectal xenograft tumor models, tumor growth inhibition; assay type: in vivo
# Description: Primary colorectal xenograft tumor models were established from 10 independent colorectal tumors obtained directly from cancer patients. The relative levels of IGF1RNA expression were determined by gene expression profiling using genomic microarrays. […] These preclinical data provided in vivo evidence that increase sensitivity to the anti-IGF1R antibody, MK-0646, was strongly associated with increase IGF1RNA expression in the primary tumors.
# [2] = cited from earlier work
substance,measurement,setting,value
MK-0646: anti-IGF1R monoclonal antibody dalotuzumab (MK0646; CAS no. 1005389-60-5),blocking IGF1 ability to bind directly to the IGF1 receptor,IGF1 receptor,capable of blocking
same,proliferation of H2122 cells,H2122 NSCLC cells; in the absence of IGF1,did not significantly alter
same,IGF1-dependent proliferation / relative cell growth of H2122 cells,H2122 NSCLC cells; in the presence of IGF1 (10 ng),statistically significant growth inhibition; also recorded: significantly blocked
same,tumor growth inhibition,[1]; the 2 colorectal xenograft models with increased IGF1 RNA expression,at least 50%
same,tumor growth inhibition,[1]; the 8 xenograft tumor models with low IGF1 expression,minimal or no tumor growth inhibition
same,MTD,[2]; with G alone,10 mg/kg
same,MTD,[2]; with Gemcitabine (G) and Erlotinib (E),5 mg/kg
